Experimental data from EP0403158A2, “Imidazolyl-alkenoic acids” (SMITHKLINE BEECHAM CORPORATION, priority 1989, dated 1990).

Key:
[1] = test system: mean arterial pressure in conscious rats made renin dependent hypertensive; experiment: Antihypertensive activity in renal artery ligated (renin dependent hypertensive) conscious rats; format: in vivo; settings: Rattus norvegicus, iv, seven to eight days following ligation, read-out: IC30 (dose of compound needed to reduce mean arterial pressure by 30 mm Hg)
Description: (§1) Angiotensin II antagonist activity of the compounds of Formulas (I) and (IA) is assessed by in vitro and in vivo methods. In vitro antagonist activity is determined by the ability of the compounds to compete with ¹²⁵I-angiotensin II for binding to vascular angiotensin II receptors and by their ability to antagonize the contractile response to angiotensin II in the isolated rabbit aorta. In vivo activity is evaluated by the efficacy of the compounds to inhibit the pressor response to exogenous angiotensin II in conscious rats and to lower blood pressure in a rat model of renin dependent hypertension.
The antihypertensive activity of the compounds is measured by their ability to reduce mean arterial pressure in conscious rats made renin dependent hypertensive by ligation of the left renal artery (Cangiano et al., J. Pharmacol. Exp. Ther. 208:310, 1979). Renal artery ligated rats are prepared with indwelling catheters as described above. Seven to eight days following renal artery ligation, the time at which plasma renin levels are highest, the conscious rats are placed in restrainers and mean arterial pressure is continuously recorded prior to and following the administration of the compounds intravenously or orally. The dose of compound needed to reduce mean arterial pressure by 30 mm Hg (IC₃₀) is used as an estimate of potency. […]

[2] = test system: pressor response to exogenous angiotensin II; experiment: Inhibition of pressor response to angiotensin II in conscious rats; format: in vivo; settings: Rattus norvegicus, i.v., change in mean arterial pressure after intravenous 250 mg/kg angiotensin II, read-out: IC50 (dose of compound needed to produce 50% inhibition of the control response to angiotensin II)
Description: as §1
Rats are prepared with indwelling femoral arterial and venous catheters and a stomach tube (Gellai et al., Kidney Int. 15:419, 1979). Two to three days following surgery the rats are placed in a restrainer and blood pressure is continuously monitored from the arterial catheter with a pressure transducer and recorded on a polygraph. The change in mean arterial pressure in response to intravenous injections of […] angiotensin II is compared at various time points prior to and following the administration of the compounds intravenously or orally at doses of 3 to 300 mg/kg. The dose of compound needed to produce 50% inhibition of the control response to angiotensin II (IC₅₀) is used to estimate the potency of the compounds. […]

CCCCc1ncc(/C=C(\Cc2ccccc2)C(=O)O)n1Cc1ccccc1Cl [(E)-3-[2-n-butyl-1-{(2-chlorophenyl)methyl}-1H-imidazol-5-yl]-2-benzyl-2-propenoic acid]
ED (30 mm Hg) [1]: 10 mg/kg
ED50 [2]: 14 mg/kg
